Test results reported in PMC8992272, “Stabilities of Three Key Biological Trisulfides with Implications for Their Roles in the Release of Hydrogen Sulfide and Bioaccumulation of Sulfane Sulfur” (ACS Omega, 2022).

How the values were obtained:
Assay type in all cases: physicochemical
[1] = Stability in the presence of acetonitrile, benzamide, zinc sulfate or iron sulfate, or in methanol-d4 (1H NMR)
Description: N-Acetylcysteine trisulfide (26.5 mg, 66 μmol) was dissolved in 600 μL of D2O. Acetonitrile (3.0 mg, 73 μmol) was added, and the ^1H NMR spectra were taken periodically to track degradation.
N-Acetylcysteine trisulfide (31.4 mg, 78 μmol) was dissolved in 600 μL of D2O. Benzamide (9.4 mg, 78 μmol) was added, and the ^1H NMR spectra were taken periodically to track degradation.
N-Acetylcysteine trisulfide (15.0 mg, 38 μmol) was dissolved in 600 μL of D2O. ZnSO4 (11.8 mg, 73 μmol) was added, and the ^1H NMR spectra were taken periodically to track degradation.
N-Acetylcysteine trisulfide (15.0 mg, 38 μmol) was dissolved in 600 μL of D2O. FeSO4·7H2O (11.6 mg, 41 μmol) was added, and the ^1H NMR spectra were taken periodically to track degradation.
N-Acetylcysteine trisulfide (32.1 mg, 80 μmol) was dissolved in 600 μL of CD3OD. The ^1H NMR spectra were taken periodically to track degradation.
Cysteine trisulfide (5.1 mg, 19 μmol) was added to 600 μL of D2O. Solution was filtered to remove undissolved particles. […] The ^1H NMR spectra were taken periodically to track degradation.
Cysteine trisulfide (6.8 mg, 25 μmol) was added to 600 μL of D2O. Solution was filtered to remove undissolved particles. […] The ^1H NMR spectra were taken periodically to track degradation.

Solubility observations = conditions: CDCl3 and acetone
[2] = Stability in nonbuffered D2O at room and elevated temperature (1H NMR)
Description: N-Acetylcysteine trisulfide (24.3 mg, 61 μmol) was dissolved in 500 μL of D2O and placed in a 40 °C oil bath. The ^1H NMR spectra were taken periodically to track degradation.
N-Acetylcysteine trisulfide (24.3 mg, 61 μmol) was dissolved in 500 μL of D2O and placed in a 60 °C oil bath. The ^1H NMR spectra were taken periodically to track degradation.
N-Acetylcysteine tetrasulfide (8.0 mg, 21 μmol) was dissolved in 600 μL of D2O. The ^1H NMR spectra were taken periodically to track degradation.
N-Acetylcysteine tetrasulfide (10.0 mg, 26 μmol) was dissolved in 600 μL of D2O and placed in a 40 °C oil bath. The ^1H NMR spectra were taken periodically to track degradation.

[3] = Kinetics of degradation of trisulfides in the presence of a thiol (1H NMR); conditions: water, NAC added, vial uncapped to allow H2S to evaporate, after 1 day
Description: To investigate the rate of reaction of trisulfides with an added thiol and to characterize the degradation products, 5 mM trisulfides of cysteine, glutathione, and NAC were separately added to […] For instance, 5 equiv of cysteine was added to cysteine trisulfide and 5 equiv of NAC was added to NAC trisulfide. The pH was buffered to a pH of 7.0 to ensure that each trisulfide was soluble and to closely mimic in vivo pH.
Cysteine trisulfide (0.7 mg, 2.6 μmol) was dissolved in 500 μL of D2O buffered to pH 7.0, yielding a 5 mM solution. Cysteine (1.5 mg, 12.4 μmol) was added, and the ^1H NMR spectra were periodically obtained to track degradation.
Glutathione trisulfide (1.6 mg, 2.6 μmol) was added to 500 μL of D2O buffered to a pH of 7.0, yielding a 5 mM solution. Glutathione (3.8 mg, 12.4 μmol) was added, and the ^1H NMR spectra were obtained periodically to track degradation.
N-Acetylcysteine trisulfide (1.0 mg, 2.6 μmol) was dissolved in 500 μL of D2O buffered to pH 7.0, yielding a 5 mM solution. N-Acetylcysteine (2.1 mg, 12.4 μmol) was added, and the ^1H NMR spectra were obtained periodically to track degradation.
Cysteine trisulfide (0.7 mg, 2.6 μmol) was dissolved in 500 μL of D2O buffered to pH 7.0, yielding a 5 mM solution. tert-Butanol (0.8 μL, 2.6 μmol) was added as an internal standard. […]

Q: With `CC(=O)N[C@@H](CSSSC[C@H](NC(C)=O)C(=O)O)C(=O)O` [NAC trisulfide, N-Acetylcysteine Trisulfide] as the compound, how does the degradation ([1]; acetonitrile and benzamide added, D2O, after 8 days) read?
A: No degradation

Q: What about the degradation ([1]; methanol-d4, after 8 days) of the same compound?
A: no observable degradation

Q: And the stability ([1]; zinc sulfate and iron sulfate in D2O, 11 days)?
A: stable

Q: And the solubility (Solubility observations)?
A: very limited solubility

Q: What about the degraded ([2]; 60 °C, in 3 days) of the same compound?
A: 74%

Q: What about the degradation ([2]; water, 40 °C oil bath, after 10 days) of the same compound?
A: No noticeable degradation

Q: What about the trisulfide remaining [3] of the same compound?
A: no NAC trisulfide was observed
